Measurements published in US8507411B2, “Neoglycorandomization and digitoxin analogs” (priority 2004, dated 2013).

Columns and labels:
NCI-H460 = test: High-throughput calcein AM cytotoxicity assay, NCI-H460; format: cell-based, human; conditions: NCI-H460 cells; read-out: IC50, NCI-H460
Text: (§1) Standard errors are depicted with error bars.

A549 = test: High-throughput calcein AM cytotoxicity assay, A549; format: cell-based, human; conditions: A549 cells; read-out: IC50, A549
Text: as §1

Du145 = test: High-throughput calcein AM cytotoxicity assay, Du145; format: cell-based, human; conditions: Du145 cells; read-out: IC50, Du145
Text: as §1

MCF7 = test: High-throughput calcein AM cytotoxicity assay, MCF7; format: cell-based, human; conditions: MCF7 cells; read-out: IC50, MCF7
Text: as §1

NmuMG = test: cells; format: cell-based, mouse; conditions: NmuMG mouse mammary normal epithelial control line; read-out: IC50, NmuMG
Text: (§2) In the assay, live cells were distinguished by the presence of a ubiquitous intracellular enzymatic activity which converts the non-fluorescent cell-permeable molecule calcein AM to the intensely fluorescent molecule calcein, which is retained within live cells. The IC50 value for each library member represents at least six replicates of dose-response experiments conducted over five concentrations using two-fold dilutions. […] Standard errors are depicted with error bars. Numerical values and corresponding error values can be found in Table 4. Du145: […]; MCF7: human breast carcinoma; HCT-116: human colon carcinoma, Hep3B: human liver carcinoma; SF-268: human CNS glioblastoma; SK-OV-3: human ovary adenocarcinoma; NCI-H460: human lung carcinoma; A549: human lung adenocarcinoma; NCI/ADR-RES: human breast carcinoma; NmuMG: mouse mammary normal epithelial.
(§3) Cell Culture: All cell lines except NmuMG were maintained in RPMI 1640 medium from InVitrogen (Cat No. 11875-085) supplemented with 10% w/v fetal bovine serum (FBS) from ICN (Cat No. 2916154) and penicillin-streptomycin (PS) (100 U/mL and 100 μg/mL) from InVitrogen (Cat No. 15140-122). NmuMG cells were maintained in DMEM medium from InVitrogen (Cat No. 11965-084) supplemented with 10% w/v fetal bovine serum (FBS) from ICN (Cat No. 2916154), 10 μg/ml insulin (InVitrogen Cat No 12585-014), and penicillin-streptomycin (PS) (100 U/mL and 100 μg/mL) from InVitrogen (Cat No. 15140-122). Cells were harvested by trypsinization using 0.25% w/v trypsin and 0.1% w/v EDTA from InVitrogen (Cat No. 15-050-057) and then counted in a hemocytometer in duplicate with better than 10% agreement in field counts. Cells were plated at a cell density of 10,000-15,000 cells/well of each Corning Costar 96-well black tissue culture treated microtiter plate (Fisher Cat No. 07-200-627). Cells were grown for 1 h at 37° C., with 5% CO2 in a humidified incubator to allow cell attachment to occur before compound addition.
(§4) Library Member Handling and Preparation for Cytotoxicity Assays: Library members were stored at −20° C. under dessicating conditions before the assay. Library member stocks (100×) were prepared in Corning Costar polypropylene 96-well V-bottom polypropylene microtiter plates (Fisher Cat No. 07-200-695). Five serial 1:2 dilutions were made with anhydrous DMSO at 100× the final concentration used in the assay.
(§5) Library Member Addition: The library member-containing plates were diluted 1:10 with complete cell culture media. The 10× stocks (10 μL) were added to the attached cells using a Biomek FX liquid handler (Beckman-Coulter). Library member stocks (10 μL) were added to 90 μL of cells in each plate to insure full mixing of stocks with culture media using a Beckman FX liquid handler with 96-well head.
(§6) Determination of Cytotoxicity: Cells were incubated with the library members for 72 h before fluorescence reading. Test plates were removed from the incubator and washed 1× in sterile PBS to remove serum containing calcium esterases. Calcein AM reagent (30 μL, […]) was added and the cells were incubated for 30 min at 37° C. Plates were read for emission using a fluorescein filter (excitation 485 nm, emission 535 nm).
(§7) IC50 Calculation: For each library member, at least six dose response experiments were conducted. […] To calculate IC50, percent inhibitions were plotted as a function of log [concentration] and then fit to a four-parameter logistic model that allowed for a variable Hill slope using XLfit 4.1.
(§8) Cytotoxicity Assays. All cell lines except NmuMG were maintained in RPMI 1640 medium supplemented with 10% w/v fetal bovine serum (FBS) and penicillin-streptomycin (PS) (100 U/mL and 100 μg/mL).

Hep3B = test: High-throughput calcein AM cytotoxicity assay, Hep3B; format: cell-based, human; conditions: Hep 3B cells; read-out: IC50, Hep 3B
Text: as §1

SK-OV-3 = test: cells; format: cell-based, human; conditions: SK-OV-3 cells; read-out: IC50, SK-OV-3
Text: as §2, §3, §4, §5, §6, §7, §8

NCI/ADR-RES = test: cells; format: cell-based, human; conditions: NCI/ADR-RES cells; read-out: IC50, NCI/ADR-RES
Text: as §2, §3, §4, §5, §6, §7, §8

SF-268 = test: cells; format: cell-based, human; conditions: SF-268 cells; read-out: IC50, SF-268
Text: as §2, §3, §4, §5, §6, §7, §8

HCT-116 = test: High-throughput calcein AM cytotoxicity assay, HCT-116; format: cell-based, human; conditions: HCT-116 cells; read-out: IC50, HCT-116
Text: as §1

Q: `CON(C1CCC2(C)C(CCC3C2CCC2(C)C(C4=CC(=O)OC4)CCC32O)C1)C1OCC(O)C(O)C1O` [14α, L-lyxoside] was tested. Which IC50 (NCI-H460) did it give?
A: Its IC50 is over 25 µM.

Q: What about the IC50 (A549) of the same compound?
A: The IC50 was over 25 µM.

Q: And the IC50 (Du145)?
A: The IC50 was over 25 µM.

Q: And the IC50 (MCF7)?
A: The IC50 was over 25 µM.

Q: What about the IC50 (NmuMG) of the same compound?
A: Its IC50 is over 25 µM.

Q: And the IC50 (Hep3B)?
A: Its IC50 is over 25 µM.

Q: What about the IC50 (SK-OV-3) of the same compound?
A: The IC50 was over 25 µM.

Q: And the IC50 (NCI/ADR-RES)?
A: Its IC50 is over 25 µM.

Q: What about the IC50 (SF-268) of the same compound?
A: The IC50 was over 25 µM.

Q: And the IC50 (HCT-116)?
A: The IC50 was over 25 µM.

Q: For `CON([C@H]1CC[C@@]2(C)[C@H](CC[C@@H]3[C@@H]2CC[C@]2(C)[C@@H](C4=CC(=O)OC4)CC[C@]32O)C1)[C@H]1OC[C@H](O)[C@@H](O)[C@H]1O` [14β, L-lyxoside], which IC50 (NCI-H460) is on record?
A: The IC50 was 5 µM.

Q: What about the IC50 (A549) of the same compound?
A: Its IC50 is 0.7 µM.

Q: And the IC50 (Du145)?
A: The IC50 was 2.4 µM.

Q: And the IC50 (MCF7)?
A: Its IC50 is 4.5 µM.

Q: And the IC50 (NmuMG)?
A: The IC50 was 0.9 µM.

Q: And the IC50 (Hep3B)?
A: The IC50 was 0.6 µM.

Q: And the IC50 (SK-OV-3)?
A: The IC50 was 4.2 µM.

Q: And the IC50 (NCI/ADR-RES)?
A: The IC50 was 0.73 µM.

Q: And the IC50 (SF-268)?
A: The IC50 was 1.1 µM.

Q: What about the IC50 (HCT-116) of the same compound?
A: Its IC50 is 8 µM.

Q: For `CON(C1CCC2(C)C(CCC3C2CCC2(C)C(C4=CC(=O)OC4)CCC32O)C1)C1OCC(O)C(O)C1O` [15α, D-lyxoside], which IC50 (NCI-H460) is on record?
A: The IC50 was over 25 µM.

Q: What about the IC50 (A549) of the same compound?
A: Its IC50 is over 25 µM.

Q: What about the IC50 (Du145) of the same compound?
A: The IC50 was over 25 µM.

Q: And the IC50 (MCF7)?
A: Its IC50 is over 25 µM.

Q: And the IC50 (NmuMG)?
A: The IC50 was over 25 µM.

Q: And the IC50 (Hep3B)?
A: Its IC50 is over 25 µM.

Q: And the IC50 (SK-OV-3)?
A: Its IC50 is over 25 µM.

Q: What about the IC50 (NCI/ADR-RES) of the same compound?
A: Its IC50 is over 25 µM.

Q: And the IC50 (SF-268)?
A: Its IC50 is over 25 µM.

Q: What about the IC50 (HCT-116) of the same compound?
A: Its IC50 is over 25 µM.

Q: Which results are given for `CON(C1CCC2(C)C(CCC3C2CCC2(C)C(C4=CC(=O)OC4)CCC32O)C1)C1OC(CO)C(O)C(O)C1O` [17α, L-alloside]?
A: IC50 (NCI-H460): > 25 µM; IC50 (A549): > 25 µM; IC50 (Du145): > 25 µM; IC50 (MCF7): > 25 µM; IC50 (NmuMG): > 25 µM; IC50 (Hep3B): > 25 µM; IC50 (SK-OV-3): > 25 µM; IC50 (NCI/ADR-RES): > 25 µM; IC50 (SF-268): > 25 µM; IC50 (HCT-116): > 25 µM

Q: `CON([C@H]1CC[C@@]2(C)[C@H](CC[C@@H]3[C@@H]2CC[C@]2(C)[C@@H](C4=CC(=O)OC4)CC[C@]32O)C1)[C@H]1O[C@@H](CO)[C@H](O)[C@H](O)[C@@H]1O` [17β, L-alloside] was tested. Which IC50 (NCI-H460) did it give?
A: Its IC50 is 0.69 µM.

Q: What about the IC50 (A549) of the same compound?
A: Its IC50 is 0.24 µM.

Q: And the IC50 (Du145)?
A: Its IC50 is 0.79 µM.

Q: What about the IC50 (MCF7) of the same compound?
A: The IC50 was 0.9 µM.

Q: And the IC50 (NmuMG)?
A: The IC50 was 0.33 µM.

Q: And the IC50 (Hep3B)?
A: Its IC50 is 0.8 µM.

Q: And the IC50 (SK-OV-3)?
A: Its IC50 is 0.7 µM.

Q: And the IC50 (NCI/ADR-RES)?
A: The IC50 was 0.16 µM.

Q: What about the IC50 (SF-268) of the same compound?
A: Its IC50 is 0.4 µM.

Q: And the IC50 (HCT-116)?
A: Its IC50 is 0.5 µM.

Q: Which results are given for `CON(C1CCC2(C)C(CCC3C2CCC2(C)C(C4=CC(=O)OC4)CCC32O)C1)C1OC(CO)C(O)C(O)C1O` [18α, D-alloside]?
A: IC50 (NCI-H460): > 25 µM; IC50 (A549): > 25 µM; IC50 (Du145): > 25 µM; IC50 (MCF7): > 25 µM; IC50 (NmuMG): > 25 µM; IC50 (Hep3B): > 25 µM; IC50 (SK-OV-3): > 25 µM; IC50 (NCI/ADR-RES): > 25 µM; IC50 (SF-268): > 25 µM; IC50 (HCT-116): > 25 µM

Q: With `CON([C@H]1CC[C@@]2(C)[C@H](CC[C@@H]3[C@@H]2CC[C@]2(C)[C@@H](C4=CC(=O)OC4)CC[C@]32O)C1)[C@@H]1O[C@H](CO)[C@@H](O)[C@@H](O)[C@H]1O` [18β, D-alloside] as the compound, how does the IC50 (NCI-H460) read?
A: Its IC50 is 3.2 µM.

Q: And the IC50 (A549)?
A: The IC50 was 2 µM.

Q: And the IC50 (Du145)?
A: The IC50 was 2.2 µM.

Q: What about the IC50 (MCF7) of the same compound?
A: The IC50 was 6.8 µM.

Q: And the IC50 (NmuMG)?
A: Its IC50 is 3.1 µM.

Q: What about the IC50 (Hep3B) of the same compound?
A: Its IC50 is 3.3 µM.

Q: And the IC50 (SK-OV-3)?
A: The IC50 was 6.4 µM.

Q: And the IC50 (NCI/ADR-RES)?
A: The IC50 was 0.8 µM.

Q: And the IC50 (SF-268)?
A: Its IC50 is 3.5 µM.

Q: And the IC50 (HCT-116)?
A: The IC50 was 6 µM.

Q: Which results are given for `CON(C1CCC2(C)C(CCC3C2CCC2(C)C(C4=CC(=O)OC4)CCC32O)C1)C1OC(CO)C(O)C(O)C1O` [19α, L-altroside]?
A: IC50 (NCI-H460): > 25 µM; IC50 (A549): > 25 µM; IC50 (Du145): > 25 µM; IC50 (MCF7): > 25 µM; IC50 (NmuMG): > 25 µM; IC50 (Hep3B): > 25 µM; IC50 (SK-OV-3): > 25 µM; IC50 (NCI/ADR-RES): > 25 µM; IC50 (SF-268): > 25 µM; IC50 (HCT-116): > 25 µM
